Where “and” joins values, the source holds several entries; their conditions need not be identical. Equal entries are not always repeated. Where two headings read alike, the source gives them in different places.
Columns and labels:
MMP-8 = MMP-8 (Homo sapiens, UniProt P22894); assay: Direct enzyme inhibition, MMP-8; assay type: biochemical
MMP-2 [1] = assay: PMA-stimulated CaCo2 cells, zymography of media, MMP-2; assay type: cell-based; details: 150 uM
[2] = tested on: Human Peripheral Blood mononuclear cells (PBMC) stimulated with TNF-α; assay: MMPs, TIMP-1 and inflammatory markers in supernatants of PBMC stimulated with TNF-α; assay type: cell-based; details: for Interleukin-1β protein level in PBMC supernatant / Interleukin-4 protein level in PBMC supernatant / Interleukin-5 protein level in PBMC supernatant / Interleukin-8 protein level in PBMC supernatant / Interleukin-10 protein level in PBMC supernatant / Interleukin-13 protein level in PBMC supernatant / MMP-1 protein level in PBMC supernatant / MMP-2 protein level in PBMC supernatant / MMP-10 protein level in PBMC supernatant / MMP-3 protein level in PBMC supernatant: 24 hours, TNFα, mean ± SEM
MMP-2 [3] = biological target: T1, MMP-2 (Homo sapiens, UniProt P08253); assay: Direct inhibition of recombinant MMP-2, fluorogenic substrate; assay type: biochemical; set-up: purchased R&D Systems, Ireland; details: read-out: inhibition of recombinant human MMP-2
T1 sequence (P08253 110-660): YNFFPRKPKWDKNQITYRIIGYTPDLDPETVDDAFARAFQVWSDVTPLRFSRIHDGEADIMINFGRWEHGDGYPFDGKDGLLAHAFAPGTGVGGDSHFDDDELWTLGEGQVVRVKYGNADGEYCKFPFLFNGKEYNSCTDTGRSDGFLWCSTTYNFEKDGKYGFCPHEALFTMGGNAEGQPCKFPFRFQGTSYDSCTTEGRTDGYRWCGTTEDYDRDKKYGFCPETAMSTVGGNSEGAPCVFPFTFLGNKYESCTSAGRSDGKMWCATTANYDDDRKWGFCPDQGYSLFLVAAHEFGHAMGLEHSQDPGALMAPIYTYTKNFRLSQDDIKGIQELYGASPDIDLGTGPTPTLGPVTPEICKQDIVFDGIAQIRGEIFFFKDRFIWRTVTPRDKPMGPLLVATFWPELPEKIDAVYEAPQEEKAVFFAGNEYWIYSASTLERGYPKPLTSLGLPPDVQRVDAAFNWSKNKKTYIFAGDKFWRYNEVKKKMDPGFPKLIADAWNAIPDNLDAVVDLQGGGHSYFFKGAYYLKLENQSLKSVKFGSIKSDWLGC

MMP-2 mRNA = assay: TNFα treated human cardiac fibroblasts, MMP-2 transcription (QPCR); assay type: cell-based; details: HCF, 10 ng/mL TNFα 72 hours, 75 or 150 μM
MMP-2 [4] = biological target: T1, MMP-2; assay: Model of direct enzyme inhibition, MMP-2 (IC50); assay type: biochemical
MMP-9 [5] = assay: PMA stimulated fibrosarcoma cell model (HT1080 cells), MMP-9; assay type: cell-based; details: 100 micromolar
[6] = cancer patients, Phase I, cited from earlier work
MMP-1 = biological target: T2, MMP-1 (Homo sapiens, UniProt P03956); assay: Direct enzyme inhibition, MMP-1; assay type: biochemical
T2 sequence (P03956 100-469): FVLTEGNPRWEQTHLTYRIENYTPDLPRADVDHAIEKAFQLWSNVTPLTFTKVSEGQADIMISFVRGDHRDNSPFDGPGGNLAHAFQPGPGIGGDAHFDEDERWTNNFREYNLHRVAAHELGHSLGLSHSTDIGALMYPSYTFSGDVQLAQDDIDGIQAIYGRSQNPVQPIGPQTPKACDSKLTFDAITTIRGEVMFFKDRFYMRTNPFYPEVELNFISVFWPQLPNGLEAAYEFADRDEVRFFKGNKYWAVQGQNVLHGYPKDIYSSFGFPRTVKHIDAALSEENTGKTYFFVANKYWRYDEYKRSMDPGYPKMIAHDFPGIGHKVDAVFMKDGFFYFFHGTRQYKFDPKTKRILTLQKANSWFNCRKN

MMP-9 [7] = biological target: T3, MMP-9 (Homo sapiens, UniProt P14780); assay: Direct inhibition of recombinant MMP-9, fluorogenic substrate; assay type: biochemical; set-up: purchased R&D Systems, Ireland; details: read-out: inhibition of recombinant human MMP-9
T3 sequence (P14780 94-707): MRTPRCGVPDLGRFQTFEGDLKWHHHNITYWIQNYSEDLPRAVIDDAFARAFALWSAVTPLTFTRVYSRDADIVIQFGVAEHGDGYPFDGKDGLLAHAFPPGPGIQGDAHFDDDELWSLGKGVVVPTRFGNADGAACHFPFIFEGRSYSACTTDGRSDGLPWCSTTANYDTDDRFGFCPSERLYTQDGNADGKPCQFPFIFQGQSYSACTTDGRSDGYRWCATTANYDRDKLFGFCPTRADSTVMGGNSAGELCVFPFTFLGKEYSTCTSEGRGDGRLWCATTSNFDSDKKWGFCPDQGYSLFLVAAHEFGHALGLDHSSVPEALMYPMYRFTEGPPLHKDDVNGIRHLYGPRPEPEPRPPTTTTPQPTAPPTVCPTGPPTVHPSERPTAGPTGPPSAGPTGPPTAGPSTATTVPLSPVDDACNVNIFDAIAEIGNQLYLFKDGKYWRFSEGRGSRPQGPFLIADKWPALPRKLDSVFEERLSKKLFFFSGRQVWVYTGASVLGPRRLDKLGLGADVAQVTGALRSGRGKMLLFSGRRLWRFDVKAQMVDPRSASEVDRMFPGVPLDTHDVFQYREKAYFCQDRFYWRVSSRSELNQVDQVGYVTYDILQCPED

MMP-2 [8] = assay: PMA stimulated breast cancer cell model (HT1080 cells), pro-MMP-2 / MMP-2; assay type: cell-based
MMP-9 mRNA = assay: TNFα treated human cardiac fibroblasts, MMP-9 transcription (QPCR); assay type: cell-based; details: HCF; for TNFα induced upregulation of MMP-9 mRNA: 10 ng/mL TNFα 72 hours, 75 or 150 μM
MMP-9 [9] = biological target: T3, MMP-9; assay: Model of direct enzyme inhibition, MMP-9 (IC50); assay type: biochemical
MMP-9 [10] = assay: PMA-stimulated CaCo2 cells, zymography of media, MMP-9; assay type: cell-based
MMP-13 = MMP-13 (Homo sapiens, UniProt P45452); assay: Direct enzyme inhibition, MMP-13; assay type: biochemical
human colon cancer cells = assay: Colon cancer cell invasiveness, in vitro model; assay type: cell-based; details: low dose, FIG. 10
[11] = Blood pressure in non-human primates; details: cynomolgus monkeys, over dosing period
[12] = Plasma doxycycline and nitrite/nitrate (NOx) in non-human primates; assay type: in vivo, cynomolgus monkeys; details: cynomolgus monkey, po, 4.8 mg/kg doxycycline hyclate, day 3 of dosing, base equivalents, read-out: Maximum plasma doxycycline concentration (Cmax)
MMP-9 [13] = assay: Total MMP-9 levels on repeated oral administration in non-human primates; assay type: in vivo, cynomolgus monkeys; details: for total plasma MMP-9, median AUC: NHPs, daily orogastric gavage for 72 hours, n=6; for change in MMP-9 from baseline to 72 hours: oral gavage once daily for three days, n=6 per group
[14] = tested on: Human Ventricular Cardiac Fibroblast (HCF); assay: Human ventricular cardiac fibroblast proliferation (CellTitre-Glo); assay type: cell-based

Sequence of MMP-8 (P22894 101-467, species assumed): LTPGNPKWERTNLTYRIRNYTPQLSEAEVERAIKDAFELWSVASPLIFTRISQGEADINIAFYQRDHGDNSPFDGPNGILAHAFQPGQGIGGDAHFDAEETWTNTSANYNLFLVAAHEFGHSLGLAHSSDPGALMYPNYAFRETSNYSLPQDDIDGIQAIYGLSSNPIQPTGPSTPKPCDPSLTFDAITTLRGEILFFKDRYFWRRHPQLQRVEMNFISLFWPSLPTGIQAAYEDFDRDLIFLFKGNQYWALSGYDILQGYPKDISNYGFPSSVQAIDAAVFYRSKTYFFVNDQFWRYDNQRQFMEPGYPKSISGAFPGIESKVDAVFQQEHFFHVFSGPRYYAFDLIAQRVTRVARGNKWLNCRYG

## C[C@H]1c2cccc(O)c2C(=O)C2=C(O)[C@]3(O)C(=O)C(C(N)=O)=C(O)[C@@H](N(C)C)[C@@H]3[C@@H](O)[C@@H]21 [Doxycycline, (4S,4aR,5S,5aR,6R,12aS)-4-(dimethylamino)-3,5,10,12,12a-pentahydroxy-6-methyl-1,11-dioxo-1,4,4a,5,5a,6,11,12a-octahydrotetracene-2-carboxamide, reference compound]
MMP-8
  inhibition at 100 µM: ~42.7%
MMP-2 [1]
  inhibition of MMP-2 activity relative to PMA positive control: 80%
[2]; 75 μM
  Interleukin-1β protein level in PBMC supernatant: 34.6 ± 5.8 ng/mL
  Interleukin-4 protein level in PBMC supernatant: 9.4 ± 1.2 ng/mL
  Interleukin-5 protein level in PBMC supernatant: 40.8 ± 9.0 ng/mL
  Interleukin-8 protein level in PBMC supernatant: 8852 ± 2568 ng/mL
  Interleukin-10 protein level in PBMC supernatant: 136.6 ± 74.2 ng/mL
  Interleukin-13 protein level in PBMC supernatant: 79.6 ± 17.2 ng/mL
  MMP-1 protein level in PBMC supernatant: 144.0 ± 80.0 ng/mL
  MMP-2 protein level in PBMC supernatant: 61.4 ± 54.2 ng/mL
  MMP-10 protein level in PBMC supernatant: 36.0 ± 14.0 ng/mL
[2]; 150 μM
  Interleukin-1β protein level in PBMC supernatant: 30.6 ± 5.0 ng/mL
  Interleukin-4 protein level in PBMC supernatant: 9.8 ± 0.8 ng/mL
  Interleukin-5 protein level in PBMC supernatant: 31.2 ± 5.8 ng/mL
  Interleukin-10 protein level in PBMC supernatant: 92.2 ± 33.8 ng/mL
  Interleukin-13 protein level in PBMC supernatant: 80.2 ± 3.2 ng/mL
  MMP-1 protein level in PBMC supernatant: 134 ± 48 ng/mL
  MMP-2 protein level in PBMC supernatant: 96.8 ± 80.6 ng/mL
  MMP-10 protein level in PBMC supernatant: 47.6 ± 15.8 ng/mL
[2]; 150 micromolar
  IL-8 levels in TNFalpha stimulated PBMCs (admixture study, FIG. 14): also reduce IL-8 levels compared to controls
MMP-2 [3]; 100 μM
  inhibition at 100 µM: 34 ± 3.5%
MMP-2 mRNA
  MMP-2 mRNA expression: no significant effects
MMP-2 [4]
  IC50: ~129 µM and 129 µM
MMP-9 [5]
  MMP-9 production: reduce MMP-9 production
[6]
  oral dose resulting in dose-limiting toxicity (fatigue, confusion, nausea, vomiting): 400 mg administered twice a day
[6]; oral
  maximum tolerated dose: 300 mg twice a day
MMP-1
  inhibition at 100 µM: ~12%
MMP-9 [7]; 100 μM
  inhibition at 100 µM: 33.3 ± 3.5%
MMP-2 [8]; HT1080 cells, PMA, 100 μM
  conversion of pro-MMP-2 to active MMP-2 (activation of MMP-2): increase the conversion of available pro-MMP-2 to active MMP-2
MMP-2 [8]; HT1080 cells, PMA, 100 micromolar
  pro-MMP-2 production: reduce pro-MMP-2 production
MMP-9 mRNA
  MMP-9 protein levels in treated cell supernatants: below the lower limit of quantification
  TNFα induced upregulation of MMP-9 mRNA: In contrast to doxycycline hyclate, SI1004 significantly inhibited
MMP-9 [9]
  IC50: ~164 µM and 164 µM
MMP-9 [10]; CaCo2 cells, PMA, 150 uM
  suppression of MMP-9 activity relative to PMA positive control: did not affect MMP-9 levels
MMP-13; 100 μM
  inhibition at 100 µM: ~54%
Human colon cancer cells
  colon cancer cell invasiveness: does not reduce colon cancer cell invasiveness
[11]
  diastolic blood pressure: 58.6±6.0 mmHg
  mean systolic blood pressure: 109.7±7.1 mmHg
[12]
  Cmax: 5.1 µM
MMP-9 [13]
  total plasma MMP-9, median AUC: 8.7 µg·h/mL
MMP-9 [13]; cynomolgus monkeys
  change in MMP-9 from baseline to 72 hours: MMP-9 levels increase

## C[C@H]1c2cccc(O)c2C(=O)C2=C(O)[C@]3(O)C(=O)C(C(=O)NCN(CCO[N+](=O)[O-])CCO[N+](=O)[O-])=C(O)[C@@H](N(C)C)[C@@H]3[C@@H](O)[C@@H]21 [SI1004, amido-N—[N,N-diethylnitrate-aminomethyl]-α-6-deoxy-5-oxytetracycline]
MMP-8; 10 μM
  inhibition at 10 µM: ~26%
MMP-8
  inhibition at 100 µM: ~60.7%
MMP-2 [1]
  inhibition of MMP-2 activity relative to PMA positive control: about 40%
[2]
  MMP-3 in in vitro inflammatory cell models: does not reduce MMP-3
[2]; 75 μM
  Interleukin-1β protein level in PBMC supernatant: 27.8 ± 6.6 ng/mL
  Interleukin-4 protein level in PBMC supernatant: 10.8 ± 0.2 ng/mL
  Interleukin-5 protein level in PBMC supernatant: 35.8 ± 8.4 ng/mL
  Interleukin-8 protein level in PBMC supernatant: 10960 ± 484 ng/mL
  Interleukin-10 protein level in PBMC supernatant: 125.6 ± 32.2 ng/mL
  Interleukin-13 protein level in PBMC supernatant: 80.8 ± 24.8 ng/mL
  MMP-1 protein level in PBMC supernatant: 208 ± 102 ng/mL
  MMP-2 protein level in PBMC supernatant: 120.4 ± 86.4 ng/mL
  MMP-3 protein level in PBMC supernatant: 8.7 ± 5.2 ng/mL
  MMP-10 protein level in PBMC supernatant: 26.6 ± 18.4 ng/mL
[2]; 150 μM
  Interleukin-5 protein level in PBMC supernatant: 35.6 ± 6.4 ng/mL
  Interleukin-10 protein level in PBMC supernatant: 142.0 ± 55.2 ng/mL
  Interleukin-13 protein level in PBMC supernatant: 89.4 ± 13.2 ng/mL
  MMP-1 protein level in PBMC supernatant: 171 ± 66.0 ng/mL
  MMP-2 protein level in PBMC supernatant: 95.4 ± 52 ng/mL
  MMP-3 protein level in PBMC supernatant: 9.1 ± 6.1 ng/mL
  MMP-10 protein level in PBMC supernatant: 29.0 ± 14.6 ng/mL
MMP-2 [3]
  inhibition at 100 µM: 29.7 ± 2.1%
MMP-2 mRNA
  MMP-2 mRNA expression: no significant effects
MMP-2 [4]
  IC50: 9.4 µM
MMP-1; 10 μM
  inhibition at 10 µM: ~19%
MMP-1
  inhibition at 100 µM: ~63%
MMP-9 [7]
  inhibition at 100 µM: 26.6 ± 1.7%
MMP-2 [8]
  conversion of pro-MMP-2 to active MMP-2 (activation of MMP-2): do not appear to activate MMP-2
MMP-9 mRNA
  MMP-9 protein levels in treated cell supernatants: below the lower limit of quantification
  TNFα induced upregulation of MMP-9 mRNA: significantly inhibited
MMP-9 [9]
  IC50: 25 µM
MMP-9 [10]
  suppression of MMP-9 activity relative to PMA positive control: approximately 60%
MMP-13; 10 μM
  inhibition at 10 µM: ~46%
MMP-13; at 1000 (so in the source)
  MMP-13 inhibition: around 74.5%
other
  melting point: 101 to 104 °C
Human colon cancer cells
  colon cancer cell invasiveness: more effective in reducing tumour cell invasiveness
[11]
  diastolic blood pressure: 56.4±3.8 mmHg
  mean systolic blood pressure: 101±6.3 mmHg
[14]; 75-150 μM, 2% FCS following serum starvation for 72 hours
  inhibition of HCF proliferation: significant inhibition
[14]; 150 micromolar
  inhibition of cardiac fibroblast proliferation (admixture study, FIG. 13): significantly more effective at inhibiting cardiac fibroblast proliferation
MMP-9 [13]
  total plasma MMP-9, median AUC: 4.3 µg·h/mL
MMP-9 [13]; cynomolgus monkeys
  change in MMP-9 from baseline to 72 hours: significantly reduced compared to doxycycline
MMP-9 [13]; cynomolgus monkeys, oral, daily for 3 days, vs doxycycline
  suppression of total serum MMP-9 protein levels: more effective suppression

— US9566342B2, “Compounds for treatment of heart failure” (SOLVOTRIN INNOVATIONS LIMITED, priority 2010, dated 2017)
